Where a SMILES comes first, the peptide text is derived from it. Bridges are numbered along the chain shown (N, C = ends). Where no end group is shown, it is not given here.
Tests used:
S. pneumoniae ATCC6305 = test: MIC assays under standard conditions; type: cell-based, Streptococcus pneumoniae; settings: Supplementary Table 1; cation-adjusted MHB + 5% lysed horse blood, 5% CO2, 20–24 h
Protocol: (§1) Plectasin and analogues were serially diluted in cation-adjusted Mueller–Hinton broth (MHB) in round-bottom polypropylene 96-well plates (50 µl per well). Selected bacterial strains were grown from glycerol stocks on blood agar plates. Individual colonies were inoculated in TSB and incubated at 37 °C while shaking until OD600 reached 0.5. Bacterial suspensions were then diluted 100 times in cation-adjusted MHB and distributed (50 μl per well) over the microplate containing the diluted plectasin solutions. Plates were covered by a gas-permeable adhesive membrane and incubated at 37 °C while shaking. MICs were determined by visual inspection after 16–20 h (Staphylococcus) or 20–24 h (Streptococcus). For Streptococcus strains, the broth was additionally supplemented with 5% lysed horse blood, and the microplates were incubated under 5% CO2 atmosphere. In the assays, we used the following strains: S. simulans, S. pneumoniae serotype 8, S. pneumoniae ATCC6305 and Streptococcus pyogenes M3.

S. simulans 22 = test: MIC assays under standard conditions; type: cell-based, Staphylococcus simulans; settings: for Minimum inhibitory concentration, S. simulans: Supplementary Table 1, cation-adjusted MHB, 37 °C, 16–20 h
Protocol: as §1

## CC[C@H](C)[C@@H]1NC(=O)[C@H](CO)NC(=O)[C@H](CCCCN)NC(=O)[C@@H]2CSSC[C@@H](C(=O)N[C@@H](Cc3ccc(O)cc3)C(=O)O)NC(=O)[C@H](CCCCN)NC(=O)[C@@H]3CSSC[C@H](NC(=O)[C@H](CCC(N)=O)NC(=O)[C@H](CCSC)NC(=O)[C@H](CC(=O)O)NC(=O)[C@H](CC(=O)O)NC(=O)[C@H](CCC(=O)O)NC(=O)[C@H](CC(=O)O)NC(=O)[C@H](Cc4c[nH]c5ccccc45)NC(=O)[C@@H]4CCCN4C(=O)CNC(=O)[C@H](CC(N)=O)NC(=O)[C@@H](NC(=O)CNC(=O)[C@H](Cc4ccccc4)NC(=O)CN)CSSC[C@H](NC(=O)[C@H](Cc4ccc(O)cc4)NC(=O)CNC(=O)CNC(=O)[C@H](CCCNC(=N)N)NC(=O)[C@H](Cc4ccc(O)cc4)NC(=O)CNC(=O)[C@H](CCCCN)NC1=O)C(=O)N[C@@H](C)C(=O)N[C@@H](CCCCN)C(=O)NCC(=O)NCC(=O)N[C@@H](Cc1ccccc1)C(=O)N[C@@H](C(C)C)C(=O)N3)C(=O)N[C@@H](Cc1c[nH]cn1)C(=O)N[C@@H](CC(N)=O)C(=O)N[C@@H](Cc1c[nH]cn1)C(=O)N2 [K26R] (H-GFGCNGPWDEDDMQCHNHCKSIKGYRGGYCAKGGFVCKCY-OH; disulfide 4-30, 15-37, 19-39 (inferred); N-terminus and C-terminus assumed)
S. pneumoniae ATCC6305
  Minimum inhibitory concentration, S. pneumoniae ATCC6305: 1,56 μg/mL
S. simulans 22
  Minimum inhibitory concentration, S. simulans: ≤ 0.78 µg/mL

## CC[C@H](C)[C@@H]1NC(=O)[C@H](CO)NC(=O)[C@H](CCCCN)NC(=O)[C@@H]2CSSC[C@@H](C(=O)N[C@@H](Cc3ccc(O)cc3)C(=O)O)NC(=O)[C@H](CCCCN)NC(=O)[C@@H]3CSSC[C@H](NC(=O)[C@H](CCC(N)=O)NC(=O)[C@H](CCSC)NC(=O)[C@H](CC(=O)O)NC(=O)[C@H](CC(=O)O)NC(=O)[C@H](CCC(=O)O)NC(=O)[C@H](CC(=O)O)NC(=O)[C@H](Cc4c[nH]c5ccccc45)NC(=O)[C@@H]4CCCN4C(=O)CNC(=O)[C@H](CC(N)=O)NC(=O)[C@@H](NC(=O)CNC(=O)[C@H](Cc4ccccc4)NC(=O)CN)CSSC[C@H](NC(=O)[C@H](Cc4ccccc4)NC(=O)CNC(=O)CNC(=O)[C@H](CCCCN)NC(=O)[C@H](Cc4ccc(O)cc4)NC(=O)CNC(=O)[C@H](CCCCN)NC1=O)C(=O)N[C@@H](C)C(=O)N[C@@H](CCCCN)C(=O)NCC(=O)NCC(=O)N[C@@H](Cc1ccccc1)C(=O)N[C@@H](C(C)C)C(=O)N3)C(=O)N[C@@H](Cc1c[nH]cn1)C(=O)N[C@@H](CC(N)=O)C(=O)N[C@@H](Cc1c[nH]cn1)C(=O)N2 [Y29F] (H-GFGCNGPWDEDDMQCHNHCKSIKGYKGGFCAKGGFVCKCY-OH; disulfide 4-30, 15-37, 19-39 (inferred); N-terminus and C-terminus assumed)
S. pneumoniae ATCC6305
  Minimum inhibitory concentration, S. pneumoniae ATCC6305: ≤ 0.78 µg/mL
S. simulans 22
  Minimum inhibitory concentration, S. simulans: 1,56 μg/mL

## CC[C@H](C)[C@@H]1NC(=O)[C@H](CO)NC(=O)[C@H](CCCCN)NC(=O)[C@@H]2CSSC[C@@H](C(=O)N[C@@H](Cc3ccc(O)cc3)C(=O)O)NC(=O)[C@H](CCCCN)NC(=O)[C@@H]3CSSC[C@H](NC(=O)[C@H](CCC(N)=O)NC(=O)[C@H](CCSC)NC(=O)[C@H](CC(=O)O)NC(=O)[C@H](CC(=O)O)NC(=O)[C@H](CCC(=O)O)NC(=O)[C@H](CC(=O)O)NC(=O)[C@H](Cc4c[nH]c5ccccc45)NC(=O)[C@@H]4CCCN4C(=O)CNC(=O)[C@H](CC(N)=O)NC(=O)[C@@H](NC(=O)CNC(=O)[C@H](Cc4ccccc4)NC(=O)CN)CSSC[C@H](NC(=O)[C@H](C)NC(=O)CNC(=O)CNC(=O)[C@H](CCCCN)NC(=O)[C@H](Cc4ccc(O)cc4)NC(=O)CNC(=O)[C@H](CCCCN)NC1=O)C(=O)N[C@@H](C)C(=O)N[C@@H](CCCCN)C(=O)NCC(=O)NCC(=O)N[C@@H](Cc1ccccc1)C(=O)N[C@@H](C(C)C)C(=O)N3)C(=O)N[C@@H](Cc1c[nH]cn1)C(=O)N[C@@H](CC(N)=O)C(=O)N[C@@H](Cc1c[nH]cn1)C(=O)N2 [Y29A] (H-GFGCNGPWDEDDMQCHNHCKSIKGYKGGACAKGGFVCKCY-OH; disulfide 4-30, 15-37, 19-39 (inferred); N-terminus and C-terminus assumed)
S. pneumoniae ATCC6305
  Minimum inhibitory concentration, S. pneumoniae ATCC6305: > 50 µg/mL
S. simulans 22
  Minimum inhibitory concentration, S. simulans: 12,5 μg/mL

## CC[C@H](C)[C@@H]1NC(=O)[C@H](CO)NC(=O)[C@H](CCCCN)NC(=O)[C@@H]2CSSC[C@@H](C(=O)N[C@@H](Cc3ccc(O)cc3)C(=O)O)NC(=O)[C@H](CCCCN)NC(=O)[C@@H]3CSSC[C@H](NC(=O)[C@H](CCC(N)=O)NC(=O)[C@H](CCSC)NC(=O)[C@H](CC(=O)O)NC(=O)[C@H](CC(=O)O)NC(=O)[C@H](CCC(=O)O)NC(=O)[C@H](CC(=O)O)NC(=O)[C@H](Cc4c[nH]c5ccccc45)NC(=O)[C@@H]4CCCN4C(=O)CNC(=O)[C@H](CC(N)=O)NC(=O)[C@@H](NC(=O)CNC(=O)[C@H](Cc4ccccc4)NC(=O)CN)CSSC[C@H](NC(=O)[C@H](Cc4ccc(O)cc4)NC(=O)CNC(=O)CNC(=O)[C@H](CCCCN)NC(=O)[C@H](C(C)C)NC(=O)CNC(=O)[C@H](CCCCN)NC1=O)C(=O)N[C@@H](C)C(=O)N[C@@H](CCCCN)C(=O)NCC(=O)NCC(=O)N[C@@H](Cc1ccccc1)C(=O)N[C@@H](C(C)C)C(=O)N3)C(=O)N[C@@H](Cc1c[nH]cn1)C(=O)N[C@@H](CC(N)=O)C(=O)N[C@@H](Cc1c[nH]cn1)C(=O)N2 [Y25V] (H-GFGCNGPWDEDDMQCHNHCKSIKGVKGGYCAKGGFVCKCY-OH; disulfide 4-30, 15-37, 19-39 (inferred); N-terminus and C-terminus assumed)
S. simulans 22
  Minimum inhibitory concentration, S. simulans: 6,25 μg/mL

## CSCC[C@@H]1NC(=O)[C@H](CC(=O)O)NC(=O)[C@H](CC(=O)O)NC(=O)[C@H](CCC(=O)O)NC(=O)[C@H](CC(=O)O)NC(=O)[C@H](Cc2c[nH]c3ccccc23)NC(=O)[C@@H]2CCCN2C(=O)CNC(=O)[C@H](CC(N)=O)NC(=O)[C@@H](NC(=O)CNC(=O)[C@H](Cc2ccccc2)NC(=O)CN)CSSC[C@@H]2NC(=O)[C@H](Cc3ccc(O)cc3)NC(=O)CNC(=O)CNC(=O)[C@H](CCCCN)NC(=O)[C@H](Cc3ccc(O)cc3)NC(=O)CNC(=O)[C@H](CCCCN)NC(=O)[C@H](Cc3ccccc3)NC(=O)[C@H](CO)NC(=O)[C@H](CCCCN)NC(=O)[C@@H]3CSSC[C@@H](C(=O)N[C@@H](Cc4ccc(O)cc4)C(=O)O)NC(=O)[C@H](CCCCN)NC(=O)[C@H](CSSC[C@H](NC(=O)[C@H](CCC(N)=O)NC1=O)C(=O)N[C@@H](Cc1c[nH]cn1)C(=O)N[C@@H](CC(N)=O)C(=O)N[C@@H](Cc1c[nH]cn1)C(=O)N3)NC(=O)[C@H](C(C)C)NC(=O)[C@H](Cc1ccccc1)NC(=O)CNC(=O)CNC(=O)[C@H](CCCCN)NC(=O)[C@H](C)NC2=O [I22F] (H-GFGCNGPWDEDDMQCHNHCKSFKGYKGGYCAKGGFVCKCY-OH; disulfide 4-30, 15-37, 19-39 (inferred); N-terminus and C-terminus assumed)
S. simulans 22
  Minimum inhibitory concentration, S. simulans: > 50 µg/mL

## nisin (ITSISLCTPGCKTGALMGCNMKTATCHCSIHVSK; not fully specified (some residues, bridges); also: lantibiotic nisin-A (thioether rings, dehydro residues) not placed; UniProt P13068 24-57, looked up) [reference compound]
S. simulans 22; legend of the permeabilization assays
  MIC towards S. simulans as quoted in Extended Data Fig. 8: 0.075 µM

## CSCC[C@@H]1NC(=O)[C@H](CC(=O)O)NC(=O)[C@H](CC(=O)O)NC(=O)[C@H](CCC(=O)O)NC(=O)[C@H](CC(=O)O)NC(=O)[C@H](Cc2c[nH]c3ccccc23)NC(=O)[C@@H]2CCCN2C(=O)CNC(=O)[C@H](CC(N)=O)NC(=O)[C@@H](NC(=O)CNC(=O)[C@H](Cc2ccccc2)NC(=O)CN)CSSC[C@@H]2NC(=O)[C@H](Cc3ccc(O)cc3)NC(=O)CNC(=O)CNC(=O)[C@H](CCCCN)NC(=O)[C@H](Cc3ccc(O)cc3)NC(=O)CNC(=O)[C@H](CCCCN)NC(=O)[C@H](CC(C)C)NC(=O)[C@H](CO)NC(=O)[C@H](CCCCN)NC(=O)[C@@H]3CSSC[C@@H](C(=O)N[C@@H](Cc4ccc(O)cc4)C(=O)O)NC(=O)[C@H](CCCCN)NC(=O)[C@H](CSSC[C@H](NC(=O)[C@H](CCC(N)=O)NC1=O)C(=O)N[C@@H](Cc1c[nH]cn1)C(=O)N[C@@H](CC(N)=O)C(=O)N[C@@H](Cc1c[nH]cn1)C(=O)N3)NC(=O)[C@H](C(C)C)NC(=O)[C@H](Cc1ccccc1)NC(=O)CNC(=O)CNC(=O)[C@H](CCCCN)NC(=O)[C@H](C)NC2=O [I22L] (H-GFGCNGPWDEDDMQCHNHCKSLKGYKGGYCAKGGFVCKCY-OH; disulfide 4-30, 15-37, 19-39 (inferred); N-terminus and C-terminus assumed)
S. simulans 22
  Minimum inhibitory concentration, S. simulans: 1,56 μg/mL

## CC[C@H](C)[C@@H]1NC(=O)CNC(=O)[C@H](CCCCN)NC(=O)[C@H]([C@@H](C)CC)NC(=O)[C@H](CO)NC(=O)[C@H](CCCCN)NC(=O)[C@@H]2CSSC[C@@H](C(=O)N[C@@H](Cc3ccc(O)cc3)C(=O)O)NC(=O)[C@H](CCCCN)NC(=O)[C@@H]3CSSC[C@H](NC(=O)[C@H](CCC(N)=O)NC(=O)[C@H](CCSC)NC(=O)[C@H](CC(=O)O)NC(=O)[C@H](CC(=O)O)NC(=O)[C@H](CCC(=O)O)NC(=O)[C@H](CC(=O)O)NC(=O)[C@H](Cc4c[nH]c5ccccc45)NC(=O)[C@@H]4CCCN4C(=O)CNC(=O)[C@H](CC(N)=O)NC(=O)[C@@H](NC(=O)CNC(=O)[C@H](Cc4ccccc4)NC(=O)CN)CSSC[C@H](NC(=O)[C@H](Cc4ccc(O)cc4)NC(=O)CNC(=O)CNC(=O)[C@H](CCCCN)NC1=O)C(=O)N[C@@H](C)C(=O)N[C@@H](CCCCN)C(=O)NCC(=O)NCC(=O)N[C@@H](Cc1ccccc1)C(=O)N[C@@H](C(C)C)C(=O)N3)C(=O)N[C@@H](Cc1c[nH]cn1)C(=O)N[C@@H](CC(N)=O)C(=O)N[C@@H](Cc1c[nH]cn1)C(=O)N2 [Y25I] (H-GFGCNGPWDEDDMQCHNHCKSIKGIKGGYCAKGGFVCKCY-OH; disulfide 4-30, 15-37, 19-39 (inferred); N-terminus and C-terminus assumed)
S. simulans 22
  Minimum inhibitory concentration, S. simulans: 6,25 μg/mL

Source: publication PMC11222147, “Host defence peptide plectasin targets bacterial cell wall precursor lipid II by a calcium-sensitive supramolecular mechanism” (Nature Microbiology, 2024)
